{"source": "paper PMC6992940", "about": "(Bone Reports, 2020)", "target": "ERα (estrogen receptor alpha) (Homo sapiens, UniProt P03372)", "sequence (P03372 whole entry)": "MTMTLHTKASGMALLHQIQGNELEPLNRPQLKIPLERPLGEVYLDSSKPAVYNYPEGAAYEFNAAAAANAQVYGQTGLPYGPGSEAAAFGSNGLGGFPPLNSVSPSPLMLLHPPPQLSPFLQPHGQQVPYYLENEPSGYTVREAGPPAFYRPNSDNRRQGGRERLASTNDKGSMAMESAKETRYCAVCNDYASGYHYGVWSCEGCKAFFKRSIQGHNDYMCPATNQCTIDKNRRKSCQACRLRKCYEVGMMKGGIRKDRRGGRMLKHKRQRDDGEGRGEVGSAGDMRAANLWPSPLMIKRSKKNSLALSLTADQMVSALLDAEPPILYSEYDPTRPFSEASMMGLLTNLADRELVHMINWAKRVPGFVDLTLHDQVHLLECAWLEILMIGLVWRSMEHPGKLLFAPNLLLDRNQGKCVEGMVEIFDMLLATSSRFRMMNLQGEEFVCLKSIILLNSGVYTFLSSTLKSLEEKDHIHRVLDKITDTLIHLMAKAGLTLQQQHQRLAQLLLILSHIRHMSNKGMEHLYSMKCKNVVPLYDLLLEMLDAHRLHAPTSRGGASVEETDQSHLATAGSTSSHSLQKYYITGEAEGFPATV", "test": "fluorescence polarization competitor assay", "assay_type": "binding", "data": [{"smiles": "COc1ccc2c(C(=O)c3ccc(OCCN4CCCCC4)cc3)c(-c3ccc(O)cc3)sc2c1", "note": "[compound 2, (2-(4-hydroxyphenyl)-6-methoxybenzo[b]thiophen-3-yl)(4-(2-(piperidin-1-yl)ethoxy)phenyl)methanone]", "values": [{"measurement": "IC50", "value": 0.183, "unit": "µM"}]}]}
